Experimental data taken from PubChem BioAssay (NCI).
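Where inhibition never reached the appropriate level, the endpoint shown equals the highest concentration tested. Otherwise, values were interpolated linearly from a five-concentration, 48-hour dose response in 96-well plates. GI50: concentration for 50% inhibition of growth. TGI is the concentration that stops growth completely.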

Tests used:
Experiment in all cases: inhibition of tumour cell growth, NCI panel, 48 h
SK-MEL-2 melanoma = tested on: SK-MEL-2 melanoma
IGROV1 ovarian = tested on: IGROV1 ovarian
SW-620 colon = tested on: SW-620 colon
786-0 renal = tested on: 786-0 renal
UACC-257 melanoma = tested on: UACC-257 melanoma
M14 melanoma = tested on: M14 melanoma
NCI-H23 lung = tested on: NCI-H23 lung
HOP-62 NSCLC = tested on: HOP-62 NSCLC
NCI-H522 lung = tested on: NCI-H522 lung
DU-145 prostate = tested on: DU-145 prostate

Compound | TGI (SK-MEL-2 melanoma) | TGI (IGROV1 ovarian) | TGI (SW-620 colon) | TGI (786-0 renal) | TGI (UACC-257 melanoma) | TGI (M14 melanoma) | TGI (NCI-H23 lung) | TGI (HOP-62 NSCLC) | TGI (NCI-H522 lung) | TGI (DU-145 prostate) | GI50 (SK-MEL-2 melanoma) | GI50 (NCI-H522 lung) | GI50 (IGROV1 ovarian) | GI50 (SW-620 colon) | GI50 (786-0 renal) | GI50 (UACC-257 melanoma) | GI50 (M14 melanoma) | GI50 (NCI-H23 lung) | GI50 (HOP-62 NSCLC)
CCOC(=O)C(C)(C)Oc1ccc2c(C)c(-c3ccc(Cl)cc3)c(=O)oc2c1 | > 100 µM | > 100 µM | > 100 µM | > 100 µM | > 100 µM | > 100 µM | > 100 µM | > 100 µM | – | – | – | – | – | – | – | – | – | – | –
O=C(N/N=C1/C(=O)N(c2ccc(Cl)cc2Cl)C(=O)C(=O)C1c1nc2ccccc2o1)c1ccccc1O (stereo unspecified) | > 100 µM | > 100 µM | > 100 µM | > 100 µM | – | 76.2 µM | 84.3 µM | 75.2 µM | 87.7 µM | – | – | – | – | – | – | – | – | – | –
N#Cc1c(-c2ccc(F)cc2)c(-c2ccc(F)cc2)nn(CCO)c1=O | – | > 87.4 µM | > 100 µM | > 100 µM | > 100 µM | > 100 µM | > 78.3 µM | > 76.1 µM | – | 4.42 µM | – | – | – | – | – | – | – | – | –
O=C1[C@@H]2C3c4ccccc4C([C@@H]2C(=O)N1c1ccccc1)S3(=O)=O | > 100 µM | > 100 µM | > 100 µM | > 100 µM | > 100 µM | > 100 µM | > 100 µM | – | > 100 µM | – | – | – | – | – | – | – | – | – | –
c1ccc(SC2CCSc3ccccc3C2Sc2ccccc2)cc1 (stereo unspecified) | – | – | > 100 µM | > 100 µM | > 100 µM | > 100 µM | – | > 100 µM | > 100 µM | – | – | – | – | – | – | – | – | – | –
O=c1cc(-c2ccccc2)[nH]c2c(S)cccc12 | – | > 100 µM | > 100 µM | > 100 µM | > 100 µM | > 100 µM | > 100 µM | > 100 µM | > 100 µM | > 100 µM | – | – | – | – | – | – | – | – | –
CCOC(=O)NC(=O)c1cn(CCOC(=O)NCCCCCCNC(=O)OCCn2cc(C(=O)NC(=O)OCC)c(=O)[nH]c2=O)c(=O)[nH]c1=O | > 100 µM | > 100 µM | > 100 µM | > 100 µM | > 100 µM | > 100 µM | – | > 100 µM | > 100 µM | – | – | – | – | – | – | – | – | – | –
COc1c(OC)c(OC)c(C(=O)/C=C/c2ccccc2)c(OC)c1OC | 45 µM | 27.9 µM | 31 µM | 21.6 µM | 34.3 µM | 36.7 µM | 26.8 µM | – | 14.7 µM | 12 µM | – | – | – | – | – | – | – | – | –
O=c1[nH]cc(COCCO)c(=O)[nH]1 | > 100 µM | > 100 µM | > 100 µM | > 100 µM | > 100 µM | > 100 µM | > 100 µM | > 100 µM | > 100 µM | – | – | – | – | – | – | – | – | – | –
O=C(CSc1nnc(-c2ccc(N=Cc3ccc(Cl)cc3)cc2)o1)Nc1ccc(Cl)cc1 | > 100 µM | – | > 100 µM | > 100 µM | > 100 µM | > 100 µM | > 100 µM | > 100 µM | > 100 µM | – | – | – | – | – | – | – | – | – | –
CC(=O)O[C@H]1CCC2[C@@H]3CCC4=C(O)c5nocc5C[C@]4(C)C3CC[C@@]21C (stereo partly specified) | > 100 µM | > 100 µM | > 100 µM | > 100 µM | > 100 µM | > 100 µM | > 100 µM | > 100 µM | > 100 µM | – | – | – | – | – | – | – | – | – | –
Cc1ccc(Cn2c(C)nc3c2C(=O)c2ccccc2C3=O)cc1 | 45.6 µM | > 100 µM | > 100 µM | 19.7 µM | 60.8 µM | > 100 µM | 20.5 µM | 42.1 µM | 18.1 µM | – | – | – | – | – | – | – | – | – | –
O=C(NCCCCN=c1cccccc1NCCCCNC(=O)OCc1ccccc1)OCc1ccccc1 | 36.9 µM | 54.1 µM | 41.7 µM | 31.8 µM | 29.3 µM | 29.4 µM | 48.8 µM | 39 µM | 36.8 µM | – | – | – | – | – | – | – | – | – | –
COc1ccc(/C(=N\NC(=O)C(N)=O)C(c2ccc(OC)cc2)C2(O)C(=O)Nc3c(Cl)cccc32)cc1 (stereo unspecified) | > 100 µM | > 100 µM | > 100 µM | > 100 µM | > 100 µM | > 100 µM | > 100 µM | > 100 µM | – | – | – | – | – | – | – | – | – | – | –
CCC1C2C=CC(CC2)N1S(=O)(=O)c1ccc(C)cc1 (stereo unspecified) | 28.3 µM | – | 50.3 µM | > 100 µM | 93.5 µM | > 100 µM | – | 76.3 µM | 61.5 µM | – | – | – | – | – | – | – | – | – | –
O=C(NC(=O)c1cn(CCNCCO)c(=O)[nH]c1=O)OCc1ccccc1 | – | > 100 µM | > 100 µM | > 100 µM | – | > 100 µM | > 100 µM | > 100 µM | > 100 µM | – | – | – | – | – | – | – | – | – | –
CN(C)c1c([O-])c(=[N+](C)C)c1=O | > 100 µM | > 100 µM | > 100 µM | > 100 µM | > 100 µM | > 100 µM | > 100 µM | > 100 µM | > 100 µM | – | – | – | – | – | – | – | – | – | –
COc1ccc(NC(=O)/C(N=O)=C(/C)O)cc1 | > 100 µM | > 100 µM | 30 µM | > 100 µM | > 100 µM | > 100 µM | > 100 µM | > 100 µM | – | – | – | – | – | – | – | – | – | – | –
CCCCCCC[CH2][Sn]1([CH2]CCCCCCC)[O]C(=O)c2cccnc2[S]1 | > 100 µM | > 100 µM | > 100 µM | > 100 µM | > 100 µM | > 100 µM | > 100 µM | > 100 µM | > 100 µM | – | > 100 µM | > 100 µM | > 100 µM | > 100 µM | > 100 µM | > 100 µM | > 100 µM | > 100 µM | > 100 µM
Cc1c(Cl)cccc1N1C(=O)C(Cl)=C(Cl)C1=O | > 100 µM | > 100 µM | > 100 µM | > 100 µM | > 100 µM | > 100 µM | > 100 µM | > 100 µM | 27.9 µM | – | – | – | – | – | – | – | – | – | –
CCOC(=O)C1(c2ccccc2)CCC(=O)CC1 | > 100 µM | > 100 µM | > 100 µM | > 100 µM | > 100 µM | > 100 µM | > 100 µM | > 100 µM | > 100 µM | – | – | – | – | – | – | – | – | – | –
C[C@H]1NC(=O)C2CCCCN2C(=O)CN(C)C(=O)CNC(=O)C2CCCCN2C(=O)[C@@H](NC(=O)c2nc3ccccc3cc2O)[C@@H](C)NC(=O)C2CCCCN2C(=O)CN(C)C(=O)CNC(=O)[C@@H]2CCCCN2C(=O)C1NC(=O)c1nc2ccccc2cc1O (stereo partly specified) | 0.23 µM | > 100 µM | 12.3 µM | 31.8 µM | 0.537 µM | 1.27 µM | 0.69 µM | 0.66 µM | 0.494 µM | – | – | – | – | – | – | – | – | – | –
Cc1ccc(NC(=O)C2C(=O)N(c3ccc(C)c(C)c3)C(=O)C2N=N)cc1C (stereo unspecified) | > 100 µM | > 100 µM | > 100 µM | > 100 µM | > 100 µM | > 100 µM | > 100 µM | > 100 µM | > 100 µM | – | – | – | – | – | – | – | – | – | –
